Where “and” joins values, the source holds several entries; their conditions need not be identical. Identical values can stand only once. Like-named read-outs stand apart in the source and are kept apart here. Bridge positions count the residues as written; N and C are the ends. Square brackets hold non-standard residues; d marks the D form. Peptide text beside a SMILES is read from it. S5 = C=CCCC[C@](C)(N)C(=O)O; Nle = CCCC[C@H](N)C(=O)O; Aib = CC(C)(N)C(=O)O
Assays:
[1] = tested on: Influenza B/Brisbane/60/2008; assay: microbe, parasite or virus in culture; assay type: cell-based
[2] = tested on: Influenza A H3N2 Influenza A/Brisbane/10/2007; assay: microbe, parasite or virus in culture; assay type: cell-based, influenza A virus
H1N1 California/07/2009 [3] = assay: microbe, parasite or virus in culture; assay type: cell-based, influenza A virus
H3N2 Perth/16/2009 [4] = assay: microbe, parasite or virus in culture; assay type: cell-based, influenza A virus
H3N2 Perth/16/2009 [5] = assay: microbe, parasite or virus in culture; assay type: cell-based, influenza A virus; remark: listed apart in the source
H1N1 A/PR/8/34 = details: read-out: EC50 (μM), Cytopathic effect by Neutral Red
[6] = tested on: H1N1 A/Solomon Island/03/2006; assay type: cell-based, influenza A virus; details: read-out: EC50 (μM), Cytopathic effect by Neutral Red
[7] = tested on: influenza virus, various viral strains; assay: Influenza antiviral evaluation assay (CPE, neutral red dye uptake) in MDCK cells against various viral strains (Tables 8, 9); assay type: cell-based
H7N9 A/Anhui/1/2013 = assay: microbe, parasite or virus in culture; assay type: cell-based, influenza A virus
[8] = mouse, in vivo
[9] = tested on: influenza virus, various viral strains; assay type: cell-based
H1N1 California/07/2009 [10] = assay: microbe, parasite or virus in culture; assay type: cell-based, influenza A virus; details: read-out: EC50 (μM) H1N1 California/07/2009
in vitro = details: dog
[11] = tested on: Influenza A H1N1 Influenza A/California/7/2009; assay: microbe, parasite or virus in culture; assay type: cell-based, influenza A virus
[12] = tested on: Influenza B Florida/04/2006; assay: Cytopathic effect (CPE) inhibition in MDCK cells, neutral red; assay type: cell-based
[13] = tested on: H5N1 A/Hong Kong/213/2003; assay: microbe, parasite or virus in culture; assay type: cell-based, influenza A virus
[14] = tested on: Influenza B Brisbane/60/2008; assay: Cytopathic effect (CPE) inhibition in MDCK cells, neutral red; assay type: cell-based
[15] = tested on: Influenza A H1N1 Influenza A/Texas/4/2009; assay: microbe, parasite or virus in culture; assay type: cell-based, influenza A virus
H1N1 A/Brisbane/59/2007 = assay: Cytopathic effect (CPE) inhibition in MDCK cells, neutral red; assay type: cell-based, influenza A virus
[16] = read-out: EC50 (μM) H3N2 Perth/16/2009
[17] = read-out: EC50 (μM), Cytopathic effect by Neutral Red

Which EC50 [1] does the source give for `CCCC[C@H](NC(C)=O)C(=O)N[C@@H](CC(=O)O)C(=O)N[C@H](C(=O)N[C@@H](CC(N)=O)C(=O)N[C@@]1(C)CCCC=CCCC[C@@](C)(C(=O)N[C@@H](CC(C)C)C(=O)N[C@@H](C)C(=O)N[C@H](C(=O)NC(C)(C)C(=O)N[C@@H](C)C(=O)N[C@@H](CCC(N)=O)C(N)=O)C(C)C)NC(=O)[C@H](CC(C)C)NC(=O)[C@H](CC(C)C)NC(=O)[C@H]([C@@H](C)O)NC1=O)C(C)C` [SP-6] (Ac-[Nle]DVN[S5]TLL[S5]LAV[Aib]AQ-NH2; staple 5-9) here?
Its EC50 is over 100 µM.

What about the EC90 [1] of the same compound?
Its EC90 is over 100 µM.

What about the EC50 ([2]; read-out: EC50) of the same compound?
Its EC50 is over 100 µM.

And the EC90 ([2]; read-out: EC90)?
The EC90 was over 100 µM.

What about the EC50 (H1N1 California/07/2009 [3]; read-out: EC50 (μM) H1N1 California/07/2009) of the same compound?
Its EC50 is 10 to 25 µM.

What about the EC90 (H1N1 California/07/2009 [3]; read-out: EC90) of the same compound?
Its EC90 is over 36 µM.

What about the EC90 (H3N2 Perth/16/2009 [4]) of the same compound?
Its EC90 is 22 µM.

And the EC50 (H3N2 Perth/16/2009 [4]; [16])?
Its EC50 is 25 to 50 µM.

What about the EC50 (H3N2 Perth/16/2009 [5]; [16]) of the same compound?
Its EC50 is 25 to 50 µM.

And the EC50 (H3N2 Perth/16/2009 [5]; [17])?
Its EC50 is 1.5 to 10 µM.

What about the EC50 (H1N1 A/PR/8/34) of the same compound?
Its EC50 is 10 to 25 µM.

And the EC50 [6]?
Its EC50 is 1.5 to 10 µM and < 1.5 µM.

And the “antiviral activity across influenza strains” value [7]?
Its value is “broad antiviral activity”.

And the EC50 (H7N9 A/Anhui/1/2013; read-out: EC50)?
Its EC50 is over 100 µM.

And the EC50 (H7N9 A/Anhui/1/2013; [17])?
Its EC50 is over 50 µM.

And the survival [8]?
Its survival is “all mice survived”.

What about the EC50 [9] of the same compound?
Its EC50 is over 100 µM.

And the EC90 [9]?
The EC90 was > 100 µM and 66 µM and 65 µM.

What about the EC50 (H1N1 California/07/2009 [10]) of the same compound?
Its EC50 is 10 to 25 µM.

And the CC50 (in vitro; CC50)?
The CC50 was over 100 µM.

And the CC50 (in vitro; CC50 (μM) H1N1 California/07/2009, Cell cytotoxicity (CC), run with H1N1 California/07/2009)?
The CC50 was over 100 µM.

And the CC50 (in vitro; CC50 (μM) H3N2 Perth/16/2009, Cell cytotoxicity (CC), run with H3N2 Perth/16/2009)?
The CC50 was over 100 µM.

What about the CC50 (in vitro; CC50, MDCK cells, run with Influenza A H1N1 Brisbane/59/2007, Neutral Red) of the same compound?
Its CC50 is over 100 µM.

And the CC50 (in vitro; CC50, MDCK cells, run with Influenza A H1N1 Brisbane/59/2007, Visual)?
The CC50 was over 100 µM.

And the CC50 (in vitro; CC50, MDCK cells, run with Influenza A H1N1 California/04/2009-M, Neutral Red)?
Its CC50 is over 100 µM.

What about the CC50 (in vitro; CC50, MDCK cells, run with Influenza A H1N1 California/04/2009-M, Visual) of the same compound?
Its CC50 is over 100 µM.

What about the CC50 (in vitro; CC50, MDCK cells, run with Influenza A H1N1 California/07/2009, VYR/Neutral Red) of the same compound?
Its CC50 is over 100 µM.

And the CC50 (in vitro; CC50, MDCK cells, run with Influenza A H1N1 Solomon Is./3/2006-M, Neutral Red)?
The CC50 was over 100 µM.

And the CC50 (in vitro; CC50, MDCK cells, run with Influenza A H1N1 Solomon Is./3/2006-M, Visual)?
The CC50 was over 100 µM.

And the CC50 (in vitro; CC50, MDCK cells, run with Influenza A H1N1 Solomon Is./03/2006, Neutral Red)?
The CC50 was over 100 µM.

What about the CC50 (in vitro; CC50, MDCK cells, run with Influenza A H1N1 Solomon Is./03/2006, Visual) of the same compound?
The CC50 was over 100 µM.

And the CC50 (in vitro; CC50, MDCK cells, run with Influenza A H3N2 Perth/16/2009, Neutral Red)?
The CC50 was over 100 µM.

And the CC50 (in vitro; CC50, MDCK cells, run with Influenza A H3N2 Perth/16/2009, VYR/Neutral Red)?
Its CC50 is over 100 µM.

And the CC50 (in vitro; CC50, MDCK cells, run with Influenza A H3N2 Perth/16/2009, Visual)?
The CC50 was over 100 µM.

What about the CC50 (in vitro; CC50, MDCK cells, run with Influenza A H3N2 Victoria/3/75-M, Neutral Red) of the same compound?
The CC50 was over 100 µM.

And the CC50 (in vitro; CC50, MDCK cells, run with Influenza A H3N2 Victoria/3/75-M, Visual)?
Its CC50 is over 100 µM.

What about the CC50 (in vitro; CC50, MDCK cells, run with Influenza B Brisbane/60/2008, Neutral Red) of the same compound?
The CC50 was over 100 µM.

And the CC50 (in vitro; CC50, MDCK cells, run with Influenza B Brisbane/60/2008, Visual)?
Its CC50 is over 100 µM.

And the CC50 (in vitro; CC50, MDCK cells, run with Influenza B Florida/04/2006, Neutral Red)?
Its CC50 is 98 µM.

What about the CC50 (in vitro; CC50, MDCK cells, run with Influenza B Florida/04/2006, Visual) of the same compound?
The CC50 was over 100 µM.

And the CC50 (in vitro; CC50, MDCK cells, run with Influenza B Sichuan/379/99-M, Neutral Red)?
The CC50 was over 100 µM.

What about the CC50 (in vitro; CC50, MDCK cells, run with Influenza B Sichuan/379/99-M, Visual) of the same compound?
The CC50 was over 100 µM.

What about the CC50 (in vitro; CC50, run with Influenza A H3N2 Perth/16/2006 (so in the source), Neutral Red) of the same compound?
The CC50 was over 100 µM.

What about the CC50 (in vitro; CC50, run with Influenza A H3N2 Perth/16/2006 (so in the source), Visual) of the same compound?
The CC50 was over 100 µM.

And the EC50 ([11]; read-out: EC50)?
Its EC50 is over 100 µM.

And the EC90 ([11]; read-out: EC90)?
The EC90 was over 100 µM.

What about the EC50 ([12]; read-out: EC50) of the same compound?
Its EC50 is 18 µM.

And the EC50 [12, 17]?
The EC50 was 10 to 25 µM.

What about the EC50 ([13]; read-out: EC50) of the same compound?
The EC50 was over 100 µM.

What about the EC50 [13, 17] of the same compound?
The EC50 was over 50 µM.

And the EC50 ([14]; read-out: EC50)?
The EC50 was 7.1 µM.

What about the EC50 [14, 17] of the same compound?
The EC50 was 1.5 to 10 µM.

And the EC50 ([15]; read-out: EC50)?
The EC50 was over 100 µM.

What about the EC90 ([15]; read-out: EC90) of the same compound?
The EC90 was over 100 µM.

And the EC50 (H1N1 A/Brisbane/59/2007; read-out: EC50)?
The EC50 was 5.6 µM and 5.5 µM.

What about the EC50 (H1N1 A/Brisbane/59/2007; [17]) of the same compound?
Its EC50 is 1.5 to 10 µM.
